PMC11124341, “4-Hydroxybenzoic Acid-Based Hydrazide–Hydrazones as Potent Growth Inhibition Agents of Laccase-Producing Phytopathogenic Fungi That Are Useful in the Protection of Oilseed Crops” (Molecules, 2024)
Values after ≈ are worked out from the molar mass of the structure shown.

Columns and labels:
[1] = system: Sclerotinia sclerotiorum strain FSc10; assay: In vitro antifungal activity, mycelial growth inhibition on PDA medium; format: cell-based; settings: for IC50: log-logistic model, 0–50 µg/mL range, read-out: IC50 against Sclerotinia sclerotiorum (Ss); for inhibition of growth at 50 µg/mL / fungal growth inhibition, S. sclerotiorum: screening at basal 50 µg/mL, PDA medium, mean ± SD of three determinations; for inhibition of growth at 50 µg/mL: read-out: fungal growth inhibition, S. sclerotiorum
Protocol: (§1) The cultures of Botrytis cinerea strain FBc05 and Sclerotinia sclerotiorum strain FSc10 were obtained from the collection of the Division of Plant Pathology and Mycology at the Department of Plant Protection of Wroclaw University of Environmental and Life Sciences (Poland). Cerrena unicolor (Bull.ex.Fr.) Murr, strain no. 139, originated from the culture collection of the Department of Biochemistry, University of Lublin (Poland). The stock cultures were maintained on potato dextrose agar at +4 °C and periodically transferred to a fresh medium.
(§2) Prior to the fungicidal activity assay of hydrazide–hydrazones 1–35, we considered ethanol and DMSO as potential dissolution media for tested compounds. […] Furthermore, a very important aspect of biological testing is the careful selection of organic solvents. These are typically used, e.g., methanol, ethanol, acetone, and DMSO, and may be highly toxic for microorganisms in even very low concentrations, such as 1% (v/v). Ethanol and DMSO with a final concentration between 0.1 and 1.0% (v/v) in a PDA medium were used and applied to evaluate the inhibition growth of B. cinerea, S. sclerotiorum, and C. unicolor (see Supplementary Materials). The following procedure was applied to the microorganism testing. The assays of fungi inhibition growth were performed at a basal concentration of 50 µg/mL for all compounds, and detailed experiments were extended for testing between 0 and 50 µg/mL (0, 6.25, 12.5, 25.0, and 50.0 µg/mL) for selected compounds. The tests were carried out on Petri dishes (diameter 60 mm) with PDA medium containing appropriate compound, co-solvent control, and hydrazide–hydrazone dissolved in co-solvent assay. A piece of mycelium with a 5 mm edge taken from the outer edge of the growing fungi on the PDA plate with co-solvent was transferred to a central part of the PDA plate with the examined compound. The plates thus inoculated were incubated at 22 °C in the dark for a time when the control plate containing only the co-solvent was covered entirely with the tested microorganism. For B. cinerea and S. sclerotiorum, the test took 3 days, and for C. unicolor, it took 7 days. Each assay was performed at least in triplicate. […] Model parameters c and e were estimated using the nonlinear least-squares method. Parameters d and b (with two exceptions) were fixed and assumed to be equal. Based on estimated parameters, the values of IC50 were determined. […] The IC50 values were calculated only in cases when the model predicted a decrease in growth rate by more than 50%.
(§3) In vitro antifungal activity
(§4) Prior to the fungicidal activity assay of hydrazide-hydrazones 1–35, we considered ethanol (EtOH) and DMSO as potential dissolution media for tested compounds.
(§5) EtOH and DMSO with a final concentration between 0.1–1.0% (v/v) in a PDA medium were applied to evaluate the inhibition growth of B. cinerea, S. sclerotiorum, and C. unicolor (see Table S3). The following procedure was applied to the microorganism testing with the hydrazide-hydrazones. The assays of fungi inhibition growth were performed at a basal concentration of 50 µg/mL for all compounds, and detailed experiments were extended for testing selected molecules 18, 19, 27, […]
(§6) Table S2. In vitro antifungal activity for DMSO and ethanol co-solvents.

[2] = system: Botrytis cinerea strain FBc05; assay: as above; format: cell-based; settings: for IC50: log-logistic model, 0–50 µg/mL range, read-out: IC50 against Botrytis cinerea (Bc); for inhibition of growth at 50 µg/mL / fungal growth inhibition, B. cinerea: screening at basal 50 µg/mL, PDA medium, mean ± SD of three determinations; for inhibition of growth at 50 µg/mL: read-out: fungal growth inhibition, B. cinerea
Protocol: as §1, §2, §3, §4, §5, §6

[3] = system: Cerrena unicolor strain no. 139; assay: as above; format: cell-based; settings: for inhibition of growth at 50 µg/mL / fungal growth inhibition, C. unicolor: screening at basal 50 µg/mL, PDA medium, mean ± SD of three determinations; for inhibition of growth at 50 µg/mL: read-out: fungal growth inhibition, C. unicolor
Protocol: as §1, §2, §3, §4, §5, §6

[4] = molecular target: laccase from Trametes versicolor; settings: read-out: Laccase inhibition, Ki; cited from earlier work
[5] = Sclerotinia sclerotiorum, FSC10

Row | Structure (SMILES) | inhibition of growth at 50 µg/mL ([2]; Botrytis cinerea, FBC05) | inhibition of growth at 50 µg/mL ([3]; Cerrena unicolor, NO.139) | Ki [4] | fungal growth inhibition, S. sclerotiorum [1] | fungal growth inhibition, B. cinerea [2] | further results
1 | CCO [EtOH, ethanol] |  |  |  |  |  | IC50 of co-solvent, S. sclerotiorum ([1]; co-solvent at 0.1–1.0% (v/v) in PDA medium): n.o.
2 | CC1(C(=O)Nc2ccc(O)c(Cl)c2Cl)CCCCC1 [Fenhexamid, reference compound] | 99.9 ± 0.4% | 39.9 ± 0.7% |  |  |  | inhibition at 6.25 µg/mL ([1]; Sclerotinia sclerotiorum, FSC10, fungicidal profile, 6.25 µg/mL, read-out: S. sclerotiorum inhibition): 95.6%; inhibition at 12.5 µg/mL ([1]; Sclerotinia sclerotiorum, FSC10, fungicidal profile, 12.5 µg/mL, read-out: S. sclerotiorum inhibition): 96.3%; IC50 [1, 5]: 4.2 µg/mL (≈ 13.9 µM); inhibition of growth at 50 µg/mL [1, 5]: 100 ± 0.3%; inhibition at 6.25 µg/mL ([2]; Botrytis cinerea, FBC05, fungicidal profile, 6.25 µg/mL, read-out: B. cinerea inhibition): 98.5%; inhibition at 50 µg/mL ([2]; Botrytis cinerea, FBC05, fungicidal profile, 50 µg/mL, read-out: B. cinerea inhibition): 100%; IC50 ([2]; Botrytis cinerea, FBC05): 0.1 µg/mL (≈ 0.331 µM); inhibition at 50 µg/mL ([3]; Cerrena unicolor, NO.139, fungicidal profile, 50 µg/mL, read-out: C. unicolor inhibition): 32.1%
3 | O=C(N/N=C/c1ccccc1)c1ccc(O)cc1 [compound 1] | 2.6 ± 0.2% | 10.6 ± 1.1% | 1470 µM | n.o. |  | 
4 | O=C(N/N=C/CCc1ccccc1)c1ccc(O)cc1 [compound 2] |  | 18 ± 3.2% | 1920 µM | n.o. | n.o. | 
5 | Cc1ccc(/C=N/NC(=O)c2ccc(O)cc2)cc1 [compound 3] | 3.3 ± 1.1% |  | 251 µM | n.o. |  | fungal growth inhibition, C. unicolor [3]: n.o.
6 | CC(C)c1ccc(/C=N/NC(=O)c2ccc(O)cc2)cc1 [compound 4] | 12 ± 2.6% | 20.9 ± 2.8% |  | n.o. |  | 
7 | O=C(N/N=C/c1ccccc1S(=O)(=O)[O-])c1ccc(O)cc1.[Na+] [compound 5] |  | 23.6 ± 4.2% | ≥ 2400 µM | n.o. | n.o. | 
8 | O=C(N/N=C/c1ccccc1O)c1ccc(O)cc1 [compound 6] | 4.7 ± 1.1% | 14.7 ± 0.3% | 674 µM | n.o. |  | 
9 | O=C(N/N=C/c1cccc(O)c1)c1ccc(O)cc1 [compound 7] | 3.7 ± 1.8% | 12.6 ± 4.1% | 2400 µM | n.o. |  | 
10 | O=C(N/N=C/c1ccc(O)cc1)c1ccc(O)cc1 [compound 8] | 4.2 ± 1.5% | 14.3 ± 1.7% | 638 µM | n.o. |  | 
11 | COc1ccccc1/C=N/NC(=O)c1ccc(O)cc1 [compound 9] | 3.3 ± 1.2% | 22.3 ± 2.6% | 1060 µM | n.o. |  | 
12 | COc1cccc(/C=N/NC(=O)c2ccc(O)cc2)c1 [compound 10] | 3.9 ± 2.4% |  | 416 µM | n.o. |  | fungal growth inhibition, C. unicolor [3]: n.o.
13 | COc1ccc(/C=N/NC(=O)c2ccc(O)cc2)cc1 [compound 11] | 4.4 ± 0.9% | 11.7 ± 3.5% | ≥ 2400 µM | n.o. |  | 
14 | O=C(N/N=C/c1ccc([N+](=O)[O-])o1)c1ccc(O)cc1 [compound 12, Nifuroxazide, reference compound] | 3.3 ± 1.2% | 19.5 ± 2.8% |  | no activity and n.o. | no activity | 
15 | O=C(N/N=C/c1cc(Br)ccc1O)c1ccc(O)cc1 [compound 14] |  | 56.8 ± 8.4% | ≥ 1000 µM | n.o. | n.o. | 
16 | COc1cccc(O)c1/C=N/NC(=O)c1ccc(O)cc1 [compound 15] |  | 43.1 ± 3% | ≥ 1000 µM | n.o. | n.o. | 
17 | COc1cccc(OC)c1/C=N/NC(=O)c1ccc(O)cc1 [compound 16] |  | 32.1 ± 3.1% | ≥ 1000 µM | n.o. | n.o. | 
18 | COc1ccc(C(=O)N/N=C/c2cccc(-c3ccccc3)c2O)cc1 [compound 20] | 3.3 ± 1.2% | 35.4 ± 2.4% | ≥ 1000 µM | n.o. |  | 
19 | O=C(N/N=C/c1ccc(O)cc1O)c1ccc(O)cc1 [compound 21] |  | 30.1 ± 4.3% | 939 µM | n.o. | n.o. | 
20 | Cc1cc(CO)cc(/C=N/NC(=O)c2ccc(O)cc2)c1O [compound 24] |  | 42 ± 2.1% | ≥ 1000 µM | n.o. | n.o. | 
21 | Cc1ccc(C(C)C)c(O)c1/C=N/NC(=O)c1ccc(O)cc1 [compound 28] | 50.8 ± 2.6% | 38.2 ± 2.3% | > 1000 µM |  |  | IC50 [1, 5]: 9.8 µg/mL (≈ 31.4 µM); inhibition of growth at 50 µg/mL [1, 5]: 91.4 ± 2.2%; IC50 ([2]; Botrytis cinerea, FBC05): 52.7 µg/mL (≈ 169 µM)
22 | COc1cc(O)c(/C=N/NC(=O)c2ccc(O)cc2)c(OC)c1 [compound 29] | 8.1 ± 0.6% | 9.1 ± 1.9% | ≥ 1000 µM | n.o. |  | 
23 | COc1ccc(C(=O)N/N=C/c2cc(C)cc(C(C)(C)C)c2O)cc1 [compound 31] | 2.1 ± 0.9% | 13.8 ± 3.9% | 25.8 µM | n.o. |  | 
24 | Cc1cc(/C=N/NC(=O)c2ccccc2)c(O)c(C(C)(C)C)c1 [compound 33] | 3.9 ± 0.6% | 36.6 ± 1.2% | 82 µM | n.o. |  | 
25 | Cc1cc(/C=N/NC(=O)c2cccnc2)c(O)c(C(C)(C)C)c1 [compound 34] | 7.5 ± 0.6% | 29.6 ± 2.7% |  | n.o. |  | 
26 | CC(=O)NN=Cc1cc(C)cc(C(C)(C)C)c1O [compound 35] |  | 45.7 ± 0.5% | ≥ 1000 µM | n.o. | n.o. | 
